Measurements taken from ChEMBL document CHEMBL1124290, “6- and 8-hydroxy-3,4-dihydro-3-(dipropylamino)-2H-1-benzopyrans. Dopamine agonists with autoreceptor selectivity” (J Med Chem, 1988).

Assays:
Mus musculus [1] = test: Dose required for reversal of reserpine-induced depression in mice (sc)
Mus musculus [2] = test: Dose required for inhibition of locomotor activity in mice (sc)
[3] = Ratio of ED50 values for the inhibition of locomotor activity to reversal of reserpine-induced depression; format: functional
Rattus norvegicus = test: Dose (ip) giving half-maximal reversal of the gamma-butyrolactone-induced increase in DOPA formation of rat striatum; format: functional

Structure (SMILES) | ED50 (Mus musculus [1]) [mg/kg] | ED50 (Mus musculus [2]) [mg/kg] | Ratio [3] | ED50 (Rattus norvegicus) [mg/kg]
CCCN(CCC)C1COc2ccc(O)cc2C1 (stereo unspecified) | 13.4 | 0.17 | 79 | 0.85
CCCN(CCC)C1COc2c(O)cccc2C1 (stereo unspecified) | 3.95 | 0.013 | 304 | 0.05
CN1CCc2cccc3c2[C@H]1Cc1ccc(O)c(O)c1-3 [APOMORPHINE] | 0.096 | 0.021 |  | 0.04
